Among the test systems are HS 578T breast; A549 NSCLC; CCRF-CEM leukemia; SNB-75 CNS; HCT-15 colon; MCF7 breast; SNB-19 CNS; SW-620 colon; T-47D breast; SK-MEL-2 melanoma.
Common to all, as to assay: inhibition of tumour cell growth, NCI panel, 48 h

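Following 48 hours of exposure in 96-well plates, responses at five concentrations were used to interpolate endpoints linearly. Here, GI50 denotes the concentration required for 50% inhibition of growth. TGI: concentration producing complete growth inhibition.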 *1 amine or outer side, *2 acyl side, *3 side chain or, on linkers, in order; H or OH if unused. Where a SMILES comes first, the peptide text is derived from it. CO = O=C([*:1])[*:2] A value given as a limit tells only on which side of the number the result lay.

`CCN(CC)CCCC(C)N/C(c1cccc(OC)c1)=c1\c(=O)[nH]n(-c2c3ccccc3nc3ccccc23)c(=O)\c1=C(/NC(C)CCCN(CC)CC)c1cccc(OC)c1` (configuration not stated): the GI50 in the assay with HS 578T breast is 2.3 µM; in the assay with A549 NSCLC, 0.992 µM; with CCRF-CEM leukemia, 0.482 µM; with SNB-75 CNS, 1.41 µM; in the assay on HCT-15 colon, 1.02 µM; with MCF7 breast, 0.507 µM. In addition, the GI50 with SNB-19 CNS is 3.18 µM; in the assay with SW-620 colon, 0.528 µM; in the assay with T-47D breast, 2.16 µM. Moreover, the TGI in the assay on HS 578T breast was 7.28 µM; in the assay on A549 NSCLC it was 4.25 µM; with CCRF-CEM leukemia, 3.93 µM; with SNB-75 CNS, 2.74 µM; with HCT-15 colon, 6.91 µM; in the assay on MCF7 breast it was 3.41 µM. Moreover, the figures for the TGI in the assay on SNB-19 CNS, with SW-620 colon and with T-47D breast were 13 µM, 6.82 µM and 5.97 µM, respectively.
With `COc1cc(/C=C2\C[C@H]3[C@@H]4CC=C5C[C@@H](OC(C)=O)CC[C@]5(C)[C@H]4CC[C@]3(C)[C@H]2OC(C)=O)ccc1OCCCn1ccnc1`, the GI50 was 5.85 µM in the assay on HS 578T breast; 8.45 µM in the assay on A549 NSCLC; 11.3 µM with CCRF-CEM leukemia; 7.5 µM with HCT-15 colon; 9.95 µM in the assay on MCF7 breast; 21.3 µM in the assay with SNB-19 CNS. The GI50 in the assay on SW-620 colon was 10.3 µM; in the assay on SK-MEL-2 melanoma it was 16.7 µM; with T-47D breast, 16 µM. Also, the TGI with HS 578T breast was 16.5 µM; in the assay on A549 NSCLC, 20.4 µM; in the assay with CCRF-CEM leukemia, 40.9 µM; in the assay on HCT-15 colon it was 16 µM; with MCF7 breast it was 20.9 µM; in the assay on SNB-19 CNS, over 50 µM. Also, the TGI was over 30.1 µM with SW-620 colon, over 50 µM in the assay on SK-MEL-2 melanoma and over 50 µM in the assay with T-47D breast.
With `O=C1NC(=O)[C@H]2C3C=CC([C@@H]12)[C@@H]1C(=O)NC(=O)[C@H]31`, the TGI in the assay on HS 578T breast, in the assay with A549 NSCLC, in the assay with CCRF-CEM leukemia, in the assay on HCT-15 colon, in the assay with MCF7 breast and in the assay on SNB-19 CNS was over 100 µM in each case. The TGI with SW-620 colon, with SK-MEL-2 melanoma and with T-47D breast was over 100 µM in each case.
As for `O=c1[nH]cnc2c1nnn2[C@@H]1O[C@H](CO)[C@@H](O)[C@H]1O`, the GI50 in the assay with HS 578T breast was 17.6 µM; with A549 NSCLC, 27.5 µM; with CCRF-CEM leukemia, 1.34 µM; in the assay on SNB-75 CNS it was 3.22 µM; in the assay with HCT-15 colon, 2.8 µM; with MCF7 breast it was 3.29 µM. For the same molecule, the GI50 is 3.01 µM in the assay with SW-620 colon, 5.4 µM with SK-MEL-2 melanoma and 4.53 µM in the assay with T-47D breast. The TGI with HS 578T breast, with A549 NSCLC, in the assay on CCRF-CEM leukemia, in the assay on SNB-75 CNS, with HCT-15 colon and with MCF7 breast was over 100 µM throughout. The figures for the TGI in the assay with SW-620 colon, in the assay with SK-MEL-2 melanoma and in the assay with T-47D breast were over 100 µM, 70 µM and over 100 µM, respectively.
Consider `CC(=O)O[C@H]1C(=O)[C@@]2(C)[C@H]([C@H](OC(=O)c3ccccc3)[C@]3(O)C[C@H](OC(=O)[C@H](OC(=O)CCC(=O)OC4CCC(S/N=C(N)/N=C(\N)N(C)C)CC4)[C@@H](NC(=O)c4ccccc4)c4ccccc4)C(C)=C1C3(C)C)[C@]1(OC(C)=O)CO[C@@H]1C[C@@H]2O` (some centres not stated), for which the GI50 in the assay with HS 578T breast was 0.01 µM; in the assay on A549 NSCLC, 0.0084 µM; in the assay with CCRF-CEM leukemia, 0.0155 µM; with SNB-75 CNS, under 0.005 µM; with HCT-15 colon, 0.269 µM; in the assay on MCF7 breast, under 0.005 µM. The results for the GI50 with SNB-19 CNS, in the assay on SW-620 colon and in the assay with T-47D breast were 0.0205 µM, 0.0119 µM and 0.0139 µM, respectively. For the same molecule, the TGI was over 50 µM with A549 NSCLC; over 50 µM with CCRF-CEM leukemia; 0.0174 µM in the assay with SNB-75 CNS; over 50 µM with HCT-15 colon; over 50 µM in the assay on MCF7 breast; over 50 µM in the assay on SNB-19 CNS. Moreover, the TGI with SW-620 colon and in the assay with T-47D breast was over 50 µM each time.
Turning to `Cn1c(Cc2ccccc2)nc2cc3ccccc3cc21`, the GI50 is 22.2 µM in the assay on HS 578T breast; 31.8 µM in the assay with A549 NSCLC; 15 µM in the assay with CCRF-CEM leukemia; 26.8 µM in the assay with HCT-15 colon; 38 µM with MCF7 breast; 39.3 µM in the assay with SNB-19 CNS. Besides, the figures for the GI50 in the assay on SW-620 colon, with SK-MEL-2 melanoma and in the assay with T-47D breast were 17.2 µM, 40.7 µM and 44.9 µM, respectively. Further, the TGI was 57.7 µM with HS 578T breast; over 100 µM with A549 NSCLC; 37.6 µM with CCRF-CEM leukemia; over 100 µM in the assay with HCT-15 colon; over 100 µM in the assay on MCF7 breast; over 100 µM with SNB-19 CNS. Further, the values for the TGI in the assay on SW-620 colon, with SK-MEL-2 melanoma and in the assay on T-47D breast were 38.3 µM, over 100 µM and over 100 µM, respectively.
For `COc1cc(/C=C/C(=O)CC(=O)/C=C/c2ccc(OC(=O)CCNC34CC5CC(CC(C5)C3)C4)c(OC)c2)ccc1OC(=O)CCNC12CC3CC(CC(C3)C1)C2`, the GI50 in the assay with HS 578T breast is 2.85 µM; with A549 NSCLC, 10.3 µM; in the assay with SNB-75 CNS, 4.85 µM; with HCT-15 colon, 4.49 µM; with MCF7 breast, 2.36 µM; with SNB-19 CNS it was 4.65 µM. Moreover, the GI50 in the assay with SW-620 colon is 2.43 µM; with SK-MEL-2 melanoma, 4.48 µM; with T-47D breast, 5.89 µM. Besides, the TGI with HS 578T breast was 9.17 µM; in the assay on A549 NSCLC, 28.5 µM; with SNB-75 CNS it was 22.5 µM; in the assay on HCT-15 colon, 17.6 µM; in the assay with MCF7 breast it was 9.89 µM; with SNB-19 CNS, 18.4 µM. Moreover, the TGI with SW-620 colon turned out to be 6.03 µM; with SK-MEL-2 melanoma it was 16.3 µM; in the assay on T-47D breast, 59.8 µM.
On to `C/C(=C\c1ccn(-c2ccc(N)cc2C(F)(F)F)n1)[C@@H]1C[C@@H]2O[C@]2(C)CCC[C@H](C)[C@H](O)[C@@H](C)C(=O)C(C)(C)[C@@H](O)CC(=O)O1`, for which the GI50 in the assay on HS 578T breast was 0.399 µM; in the assay on A549 NSCLC, 0.508 µM; in the assay with CCRF-CEM leukemia it was 0.413 µM; in the assay with HCT-15 colon, 0.429 µM; in the assay with MCF7 breast, 0.0859 µM; in the assay on SNB-19 CNS, 0.553 µM. Moreover, the GI50 in the assay with SW-620 colon is 0.301 µM; in the assay with SK-MEL-2 melanoma, 0.303 µM; with T-47D breast it was 0.658 µM. Further, the TGI in the assay with HS 578T breast was 4.3 µM; in the assay with A549 NSCLC it was over 11.1 µM; with CCRF-CEM leukemia, over 11.1 µM; in the assay on HCT-15 colon it was over 11.1 µM; in the assay on MCF7 breast, over 11.1 µM; in the assay on SNB-19 CNS, over 11.1 µM. In addition, the TGI in the assay on SW-620 colon was over 11.1 µM; in the assay with SK-MEL-2 melanoma it was 0.902 µM; with T-47D breast it was over 11.1 µM.
`O=C(/C=C/c1ccc2c(c1)OCO2)c1ccccc1`: the GI50 in the assay with HS 578T breast was 11.8 µM; with A549 NSCLC, 18.7 µM; with CCRF-CEM leukemia, 19.1 µM; in the assay with SNB-75 CNS it was 20.6 µM; in the assay on HCT-15 colon it was 16.6 µM; in the assay on MCF7 breast it was 4.02 µM. The GI50 in the assay on SNB-19 CNS was 15.1 µM; with SW-620 colon, 3.72 µM; in the assay on T-47D breast, 15.5 µM. Besides, the TGI in the assay on HS 578T breast was 45.6 µM; in the assay with A549 NSCLC, 49 µM; with CCRF-CEM leukemia, 81.2 µM; with SNB-75 CNS, 61.9 µM; in the assay on HCT-15 colon, over 100 µM; in the assay on MCF7 breast, 30 µM. Also, the TGI in the assay on SNB-19 CNS was determined as 32.1 µM; with SW-620 colon, 14.5 µM; in the assay on T-47D breast it was 39.5 µM.
For `CC(C)C(NC(=O)C(CCCN=C(N)N)NC(=O)NC(Cc1ccccc1)C(=O)O)C(=O)NC(C=O)CCCN=C(N)N` (stereo not drawn) ({Phe-CO}-Arg-Val-Arg-aldehyde; configuration not given here), the GI50 in the assay with HS 578T breast, with A549 NSCLC, with SNB-75 CNS, in the assay with HCT-15 colon, with MCF7 breast and with SNB-19 CNS was over 5 µM throughout. For the same molecule, the GI50 in the assay on SW-620 colon, in the assay with SK-MEL-2 melanoma and with T-47D breast was over 5 µM throughout. Moreover, the TGI in the assay on HS 578T breast, in the assay on A549 NSCLC, in the assay with SNB-75 CNS, with HCT-15 colon, in the assay on MCF7 breast and with SNB-19 CNS was over 5 µM throughout. In addition, the TGI in the assay with SW-620 colon, with SK-MEL-2 melanoma and in the assay with T-47D breast was over 5 µM each time.
As to `CC(=O)NC(Cc1c[nH]c2ccccc12)C(=O)O` (configuration not stated), the TGI with HS 578T breast, with A549 NSCLC, in the assay with CCRF-CEM leukemia, with HCT-15 colon, in the assay with MCF7 breast and in the assay on SNB-19 CNS was over 100 µM each time. Besides, the TGI with SW-620 colon, with SK-MEL-2 melanoma and with T-47D breast was over 100 µM each time.
Turning to `CCC(=O)Nc1ccc2c(c1)CN1C(=O)c3ccccc3C1=N2`, the GI50 with HS 578T breast, with A549 NSCLC, in the assay with SNB-75 CNS, in the assay with HCT-15 colon, in the assay with MCF7 breast and with SNB-19 CNS was over 100 µM each time. Also, the GI50 in the assay with SW-620 colon, in the assay on SK-MEL-2 melanoma and in the assay on T-47D breast was over 100 µM in each case. The TGI in the assay with HS 578T breast, in the assay with A549 NSCLC, in the assay with SNB-75 CNS, in the assay on HCT-15 colon, in the assay with MCF7 breast and in the assay with SNB-19 CNS was over 100 µM each time. Moreover, the TGI in the assay on SW-620 colon, with SK-MEL-2 melanoma and with T-47D breast was over 100 µM each time.

The record behind these values is PubChem BioAssay (NCI).
